Measured values taken from PMC10447463, “Data-mining unveils structure–property–activity correlation of viral infectivity enhancing self-assembling peptides” (Nature Communications, 2023).
Where two headings read alike, the source gives them in different places.

Experiments:
[1] = system: HIV-1 infection of TZM-bl cells; assay: HIV-1 infectivity enhancement assay, β-galactosidase luminescence; assay type: cell-based; settings: for Rel-EFC / Log10 Infection Rel EFC: 1.3 µM peptide; for Rel-EFC: infection relative to EF-C (QCKIKQIINMWQ = 1); for Log10 Infection Rel EFC: log10 of infection relative to EF-C; for Log Infectivity: Log10 infection relative to EF-C, TZM-bl cells, asymmetric std dev errors; for Log10 Infection Rel EF-C: HIV-1 infection of TZM-bl cells; for Abs. Inf.: absolute infection signal, HIV-1 on TZM-bl cells, β-galactosidase luminescence; for Log10 Inf. rel. to EF-C: log10 of HIV-1 infection of TZM-bl cells relative to EF-C (EF-C = 0); for Log10 of Rel to EFC (Feb2021): Log10 of infection relative to EF-C, all peptides of FigS16
[2] = β-sheet content by ATR-FT-IR; assay type: physicochemical; settings: Fig. S7 panel A; β-sheet content by ATR-FT-IR
Method in brief: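 Measurements on freeze-dried PNF powders used a diamond ATR element, 64 scans each, with β-sheet fraction derived as previously reported. CR reflects loss of fluorescamine-reactive monomer after 3 kDa ultrafiltration, averaged over triplicates.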

[3] = Zeta-potential measurement; assay type: physicochemical
Method in brief: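 PBS pH 7.4, 1 mg/mL peptide (DMSO stock), 1 d RT aggregation; diluted in 1 mM KCl pre-read; mobility → zeta (Smoluchowski); n = 3, 2 expts averaged.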

[4] = Turbidity, derived count rate of scattered light; assay type: physicochemical; settings: for Count Rate / kcps: derived count rate of scattered light at 633 nm, 173°, from zeta-potential measurement, 0.1 mg/mL in 1 mM KCl after 1 d at 1 mg/mL in PBS, turbidity / microscopic aggregation, mean of triplicate
Method in brief: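 One-day room-temperature aggregation at 1 mg/mL in PBS (pH 7.4) preceded measurement; samples then went into 1 mM KCl. Triplicates per sample, two independent experiments averaged.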

[5] = Turbidity, derived count rate of scattered light; assay type: physicochemical; settings: for Count Rate: derived count rate of scattered light (turbidity); for Log10 Count Rate: turbidity, derived count rate of scattered light, data of Figure 2D
[6] = Fig. S7 panel A (plotted against β-sheet content)
[7] = Log10 of infection rate relative to EF-C, Figure 3A source data
[8] = infection rate relative to EF-C, log10, data of Figure 2D
[9] = infection rate relative to EF-C, log10, source data of Figure 2C
[10] = zeta-potential of peptide, source data of Figure 2C
[11] = zeta-potential of the peptide assemblies, mean, Figure 3A source data
[12] = Log10 of derived count rate of scattered light (turbidity)
[13] = turbidity, Log10 of derived count rate of scattered light, Figure 3A source data
[14] = turbidity, log10 of derived count rate of scattered light
[15] = Fig. S7 panel B (plotted against CR), rounded to two decimals
[16] = logarithm of count rate in kcps
[17] = zeta potential of peptide assemblies
[18] = log10 of derived count rate of scattered light (turbidity)

KKFQKKFQ
Rel-EFC [1]: 0,03 | Log10 Infection Rel EFC [1]: -1,54 | Log Infectivity [1, 6]: -1.545 | Log10 Infection Rel EF-C [1, 7]: -1.54 | Log10 Infection Rel EF-C [1, 8]: -1.545 | Log10 Infection Rel EF-C [1, 9]: -1.545 | Abs. Inf. [1]: 423.3 | Log10 Inf. rel. to EF-C [1]: -1.545 | b -sheet / % [2]: 40.421% | Zeta-Pot. [3]: -9.19 | Zeta-Potential / mV [3, 10]: -6.175 mV | Zeta-Potential / mV [3, 11]: -9.19 mV | Log10 Count Rate [4, 12]: 1.867 | Count Rate / kcps [4]: 74 kcps | Log10 Count Rate [4, 13]: 1.867 | Log10 Count Rate [4, 14]: 1.867 | Count Rate [5]: 73.6 | Log10 Count Rate [5]: 1.867

HIHIQIC
Rel-EFC [1]: 0,27 | Log10 Infection Rel EFC [1]: -0,57 | Log Infectivity [1, 6]: -0.5672 | Log Infectivity [1, 15]: -0.57 | Log10 Infection Rel EF-C [1, 7]: -0.57 | Log10 Infection Rel EF-C [1, 8]: -0.5672 | Log10 Infection Rel EF-C [1, 9]: -0.5672 | Log10 of Rel to EFC (Feb2021) [1]: -0.57 | Abs. Inf. [1]: 4621 | Log10 Inf. rel. to EF-C [1]: -0.5672 | b -sheet / % [2]: 48.25% | Zeta-Pot. [3]: -3.687 | Zeta-Potential / mV [3, 10]: -5.093 mV | Zeta-Potential / mV [3, 11]: -3.69 mV | Log10 Count Rate [4, 12]: 2.416 | Count Rate / kcps [4]: 261 kcps | Log10 Count Rate [4, 16]: 2.416 | Log10 Count Rate [4, 13]: 2.416 | Log10 Count Rate [4, 14]: 2.416 | Count Rate [5]: 260.6 | Log10 Count Rate [5]: 2.416

KAKQAANMWQ
Rel-EFC [1]: 0,03 | Log10 Infection Rel EFC [1]: -1,51 | Log Infectivity [1, 6]: -1.514 | Log10 Infection Rel EF-C [1, 7]: -1.51 | Log10 Infection Rel EF-C [1, 8]: -1.514 | Log10 Infection Rel EF-C [1, 9]: -1.514 | Abs. Inf. [1]: 343.3 | Log10 Inf. rel. to EF-C [1]: -1.514 | b -sheet / % [2]: 10.94% | Zeta-Pot. [3]: -12.9 | Zeta-Potential / mV [3, 10]: -8.433 mV | Zeta-Potential / mV [3, 11]: -12.9 mV | Log10 Count Rate [4, 12]: 2.839 | Count Rate / kcps [4]: 690 kcps | Log10 Count Rate [4, 13]: 2.839 | Log10 Count Rate [4, 14]: 2.839 | Count Rate [5]: 690.5 | Log10 Count Rate [5]: 2.839

FDPFDPFDP
Rel-EFC [1]: 0,02 | Log10 Infection Rel EFC [1]: -1,63 | Log Infectivity [1, 6]: -1.6317 | Log10 Infection Rel EF-C [1, 7]: -1.63 | Log10 Infection Rel EF-C [1, 8]: -1.6317 | Log10 Infection Rel EF-C [1, 9]: -1.6317 | Abs. Inf. [1]: 346.7 | Log10 Inf. rel. to EF-C [1]: -1.6317 | b -sheet / % [2]: 48.89% | Zeta-Pot. [3]: -10.9 | Zeta-Potential / mV [3, 10]: -6.68 mV | Zeta-Potential / mV [3, 11]: -10.9 mV | Log10 Count Rate [4, 12]: 2.412 | Count Rate / kcps [4]: 258 kcps | Log10 Count Rate [4, 13]: 2.412 | Log10 Count Rate [4, 14]: 2.412 | Count Rate [5]: 258 | Log10 Count Rate [5]: 2.412

KWKWQW
Rel-EFC [1]: 0,01 | Log10 Infection Rel EFC [1]: -1,84 | Log Infectivity [1, 6]: -1.838 | Log10 Infection Rel EF-C [1, 7]: -1.84 | Log10 Infection Rel EF-C [1, 8]: -1.838 | Log10 Infection Rel EF-C [1, 9]: -1.838 | b -sheet / % [2]: 30.47% | Zeta-Pot. [3, 17]: 7.55 | Zeta-Potential / mV [3, 10]: 3.331 mV | Zeta-Potential / mV [3, 11]: 7.55 mV | Log10 Count Rate [4, 12]: 3.189 | Count Rate / kcps [4]: 1545 kcps | Log10 Count Rate [4, 18]: 3.189 | Log10 Count Rate [4, 16]: 3.189 | Log10 Count Rate [4, 13]: 3.189 | Count Rate [5]: 1545 | Log10 Count Rate [5]: 3.189

SISISRRI
Rel-EFC [1]: 0,03 | Log10 Infection Rel EFC [1]: -1,55 | Log Infectivity [1, 6]: -1.548 | Log Infectivity [1, 15]: -1.55 | Log10 Infection Rel EF-C [1, 7]: -1.55 | Log10 Infection Rel EF-C [1, 8]: -1.548 | Log10 Infection Rel EF-C [1, 9]: -1.548 | Abs. Inf. [1]: 313.3 | Log10 Inf. rel. to EF-C [1]: -1.548 | b -sheet / % [2]: 48.78% | Zeta-Pot. [3]: -17 | Zeta-Potential / mV [3, 10]: -9.316 mV | Zeta-Potential / mV [3, 11]: -17 mV | Log10 Count Rate [4, 12]: 1.403 | Count Rate / kcps [4]: 25 kcps | Log10 Count Rate [4, 13]: 1.403 | Log10 Count Rate [4, 14]: 1.403 | Count Rate [5]: 25.27 | Log10 Count Rate [5]: 1.403

TKTLTKTL
Rel-EFC [1]: 0,02 | Log10 Infection Rel EFC [1]: -1,67 | Log Infectivity [1, 6]: -1.671 | Log10 Infection Rel EF-C [1, 7]: -1.67 | Log10 Infection Rel EF-C [1, 8]: -1.671 | Log10 Infection Rel EF-C [1, 9]: -1.671 | Abs. Inf. [1]: 316.7 | Log10 Inf. rel. to EF-C [1]: -1.671 | b -sheet / % [2]: 34.38% | Zeta-Pot. [3]: -25.1 | Zeta-Potential / mV [3, 10]: -13.63 mV | Zeta-Potential / mV [3, 11]: -25.1 mV | Log10 Count Rate [4, 12]: 2.711 | Count Rate / kcps [4]: 515 kcps | Log10 Count Rate [4, 13]: 2.711 | Log10 Count Rate [4, 14]: 2.711 | Count Rate [5]: 514.6 | Log10 Count Rate [5]: 2.711

CKYKYQY
Rel-EFC [1]: 0,04 | Log10 Infection Rel EFC [1]: -1,39 | Log Infectivity [1, 6]: -1.3903 | Log10 Infection Rel EF-C [1, 7]: -1.39 | Log10 Infection Rel EF-C [1, 8]: -1.3903 | Log10 Infection Rel EF-C [1, 9]: -1.3903 | b -sheet / % [2]: 49.12% | Zeta-Pot. [3, 17]: 1.49 | Zeta-Potential / mV [3, 10]: 3.282 mV | Zeta-Potential / mV [3, 11]: 1.49 mV | Log10 Count Rate [4, 12]: 3.026 | Count Rate / kcps [4]: 1061 kcps | Log10 Count Rate [4, 18]: 3.026 | Log10 Count Rate [4, 13]: 3.026 | Count Rate [5]: 1061 | Log10 Count Rate [5]: 3.026

KFKQFFNMWQ
Rel-EFC [1]: 0,09 | Log10 Infection Rel EFC [1]: -1,05 | Log Infectivity [1, 6]: -1.0494 | Log10 Infection Rel EF-C [1, 7]: -1.05 | Log10 Infection Rel EF-C [1, 8]: -1.0494 | Log10 Infection Rel EF-C [1, 9]: -1.0494 | Abs. Inf. [1]: 1000 | Log10 Inf. rel. to EF-C [1]: -1.0494 | b -sheet / % [2]: 32.75% | Zeta-Pot. [3]: -3.43 | Zeta-Potential / mV [3, 10]: -2.615 mV | Zeta-Potential / mV [3, 11]: -3.43 mV | Log10 Count Rate [4, 12]: 2.375 | Count Rate / kcps [4]: 237 kcps | Log10 Count Rate [4, 13]: 2.375 | Log10 Count Rate [4, 14]: 2.375 | Count Rate [5]: 236.9 | Log10 Count Rate [5]: 2.375

EIEIEIEI
Rel-EFC [1]: 0,02 | Log10 Infection Rel EFC [1]: -1,75 | Log Infectivity [1, 6]: -1.748 | Log10 Infection Rel EF-C [1, 7]: -1.75 | Log10 Infection Rel EF-C [1, 8]: -1.748 | Log10 Infection Rel EF-C [1, 9]: -1.748 | Log10 Inf. rel. to EF-C [1]: -1.748 | b -sheet / % [2]: 62.61% | Zeta-Pot. [3, 17]: -8.92 | Zeta-Potential / mV [3, 10]: -7.535 mV | Zeta-Potential / mV [3, 11]: -8.92 mV | Log10 Count Rate [4, 12]: 2.731 | Count Rate / kcps [4]: 538 kcps | Log10 Count Rate [4, 13]: 2.731 | Log10 Count Rate [4, 14]: 2.731 | Count Rate [5]: 538.4 | Log10 Count Rate [5]: 2.731

NMWQKIKIQI
Rel-EFC [1]: 0,21 | Log10 Infection Rel EFC [1]: -0,69 | Log Infectivity [1, 6]: -0.6877 | Log10 Infection Rel EF-C [1, 7]: -0.69 | Log10 Infection Rel EF-C [1, 8]: -0.6877 | Log10 Infection Rel EF-C [1, 9]: -0.6877 | Log10 of Rel to EFC (Feb2021) [1]: -0.69 | Log10 Inf. rel. to EF-C [1]: -0.6877 | b -sheet / % [2]: 39.24% | Zeta-Pot. [3, 17]: 8.26 | Zeta-Potential / mV [3, 10]: 7.36 mV | Zeta-Potential / mV [3, 11]: 8.26 mV | Log10 Count Rate [4, 12]: 4.001 | Count Rate / kcps [4]: 10024 kcps | Log10 Count Rate [4, 13]: 4.001 | Log10 Count Rate [4, 14]: 4.001 | Count Rate [5]: 10024.06667 | Log10 Count Rate [5]: 4.001
